For this assay, the target named is KRas G12D (Homo sapiens, UniProt P01116, G12D). As to the kind of experiment: KRas G12D Binding Assay (TR-FRET displacement of labeled tracer). On the set-up: corresponding to amino acids 1:169, produced at Array BioPharma Inc; biotin (biotinylated). As to conditions: TR-FRET displacement of Cy5 labelled tracer, Biotinylated GDP-loaded KRAS G12D (amino acids 1:169), 60 minute incubation at 22° C. How it is done: This Example illustrates that exemplary compounds of the present invention bind to KRas G12D and are capable of displacing a labeled tracer ligand occupying the KRas G12D binding site. The ability of a compound to bind to KRAS G12D was measured using a TR-FRET displacement assay. Biotinylated GDP-loaded recombinant human KRAS G12D (corresponding to amino acids 1:169, produced at Array BioPharma Inc.) was incubated with a custom-made Cy5 labelled tracer, europium labelled streptavidin and compound (2% DMSO final) in buffer (50 mM HEPES [pH 7.5], 5 mM MgCl2, 0.005% Tween-20 & 1 mM DTT). After a 60 minute incubation at 22° C., the reaction was measured using a PerkinElmer EnVision multimode plate reader via TR-FRET dual wavelength detection, and the percent of control (POC) calculated using a ratiometric emission factor. […] The POC values were fit to a 4-parameter logistic curve and the IC50 value was determined as the concentration where the curve crosses 50 POC.
Chain of KRas G12D (P01116 1-169 isoform P01116-2 G12D): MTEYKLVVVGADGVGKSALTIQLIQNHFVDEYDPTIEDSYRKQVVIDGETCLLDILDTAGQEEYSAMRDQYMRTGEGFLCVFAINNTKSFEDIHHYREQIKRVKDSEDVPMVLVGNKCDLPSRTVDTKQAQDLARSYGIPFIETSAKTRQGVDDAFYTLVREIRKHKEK

SMILES strings stand for the structures. Structures can show the parent of a compound that is named as a salt.

These results are taken from patent US12655160B2, “KRAS G12D inhibitors” (Mirati Therapeutics, Inc., priority 2020, dated 2026).

In the case of `NC1(CNc2nc(OCC34CCCN3CCC4)nc3c(F)c(-c4cccc5cccc(F)c45)ncc23)CCC1` [Example 60, N-((1-aminocyclobutyl)methyl)-8-fluoro-7-(8-fluoronaphthalen-1-yl)-2-((hexahydro-1H-pyrrolizin-7a-yl)methoxy)pyrido[4,3-d]pyrimidin-4-amine], the IC50 came out at 2120 nM.

In turn, `C[C@H]1CNC[C@@H]1Nc1nc(OCC23CCCN2CCC3)nc2c(F)c(-c3cc(O)cc4ccccc34)ncc12` [Example 19, 4-(8-fluoro-4-(((3R,4S)-4-methylpyrrolidin-3-yl)amino)-2-((tetrahydro-1H-pyrrolizin-7a(5H)-yl)methoxy)pyrido[4,3-d]pyrimidin-7-yl)naphthalen-2-ol] displayed an IC50 of 245 nM.

Turning to `CC(C)c1cccc2cccc(-c3ncc4c(NCC5(N(C)C)CCC5)nc(OCC56CCCN5C[C@H](F)C6)nc4c3F)c12` (mixture of isomers) [Example 25, N-((1-(dimethylamino)cyclobutyl)methyl)-8-fluoro-2-(((2S,7aR)-2-fluorotetrahydro-1H-pyrrolizin-7a(5H)-yl)methoxy)-7-(8-isopropylnaphthalen-1-yl)pyrido[4,3-d]pyrimidin-4-amine], the 50% inhibitory concentration (IC50) was 1640 nM.

With `CN(C)C1(CNc2nc(OC[C@@]34CCCN3C[C@H](F)C4)nc3c(F)c(-c4cc(O)cc5ccccc45)ncc23)CCCCC1` [Example 30], the IC50 was found to be 1580 nM.

For `CC(C)c1c(Cl)cccc1-c1ncc2c(NCC3(N(C)C)CCC3)nc(OCC34CCCN3CCC4)nc2c1F` [Example 47, 7-(3-chloro-2-isopropylphenyl)-N-((1-(dimethylamino)cyclobutyl)methyl)-8-fluoro-2-((tetrahydro-1H-pyrrolizin-7a(5H)-yl)methoxy)pyrido[4,3-d]pyrimidin-4-amine], the IC50 was determined as 513 nM.

For `CN(C)C1(CNc2nc(OCC34CCCN3CCC4)nc3c(F)c(-c4cccc5cccc(F)c45)ncc23)CCCC1` [Example 61, N-((1-(dimethylamino)cyclopentyl)methyl)-8-fluoro-7-(8-fluoronaphthalen-1-yl)-2-((hexahydro-1H-pyrrolizin-7a-yl)methoxy)pyrido[4,3-d]pyrimidin-4-amine], the IC50 was determined as 480 nM.

`CCc1cccc2cc(O)cc(-c3ncc4c(N(C)CC5(N(C)C)CCC5)nc(OC[C@@]56CCCN5C[C@H](F)C6)nc4c3F)c12` [Example 37, 4-(4-(((1-(dimethylamino)cyclobutyl)methyl)(methyl)amino)-8-fluoro-2-(((2R,7aS)-2-fluorotetrahydro-1H-pyrrolizin-7a(5H)-yl)methoxy)pyrido[4,3-d]pyrimidin-7-yl)-5-ethylnaphthalen-2-ol dihydrochloride] returned an IC50 of 26.1 nM.

Regarding `CNC1(CNc2nc(OCC34CCCN3CCC4)nc3c(F)c(-c4cccc5cccc(F)c45)ncc23)CCC1` [Example 59, 8-fluoro-7-(8-fluoronaphthalen-1-yl)-2-((hexahydro-1H-pyrrolizin-7a-yl)methoxy)-N-((1-(methylamino)cyclobutyl)methyl)pyrido[4,3-d]pyrimidin-4-amine], the concentration for half-maximal inhibition (IC50) came to 1030 nM.

The molecule `CN(C)C1(CNc2nc(OC[C@@]34CCCN3C[C@H](F)C4)nc3c(F)c(-c4cccc5cccc(F)c45)ncc23)CCC1` [Example 22, N-((1-(dimethylamino)cyclobutyl)methyl)-8-fluoro-7-(8-fluoronaphthalen-1-yl)-2-(((2R,7aS)-2-fluorotetrahydro-1H-pyrrolizin-7a(5H)-yl)methoxy)pyrido[4,3-d]pyrimidin-4-amine] registered an IC50 of 1320 nM.

Regarding `CN(C)CCNc1nc(OC[C@@]23CCCN2C[C@H](F)C3)nc2c(F)c(-c3cc(O)cc4ccccc34)ncc12` (racemic) [Example 39, 4-(4-((2-(dimethylamino)ethyl)amino)-8-fluoro-2-(((2S,7aR)-2-fluorotetrahydro-1H-pyrrolizin-7a(5H)-yl)methoxy)pyrido[4,3-d]pyrimidin-7-yl)naphthalen-2-ol bis(2,2,2-trifluoroacetate)], the IC50 came out at 521 nM.

`CN(C)C1(CNc2nc(OC[C@@]34CCCN3C[C@H](F)C4)nc3c(F)c(-c4cccc5cccc(C(F)(F)F)c45)ncc23)CCC1` [Example 3, N-((1-(dimethylamino)cyclobutyl)methyl)-8-fluoro-2-(((2R,7aS)-2-fluorotetrahydro-1H-pyrrolizin-7a(5H)-yl)methoxy)-7-(8-(trifluoromethyl)naphthalen-1-yl)pyrido[4,3-d]pyrimidin-4-amine] displayed an IC50 of 239 nM.

As for `CN1CCC[C@@H]1COc1nc(NCC2(N(C)C)CCC2)c2cnc(-c3cc(O)cc4ccccc34)c(F)c2n1` [Example 32], the IC50 is 381 nM.

`CN(C)C1(CNc2nc(OC[C@@]34CCCN3C[C@H](F)C4)nc3c(F)c(-c4cc(O)cc5ccccc45)ncc23)CC1` [Example 6, 4-(4-(((1-(dimethylamino)cyclopropyl)methyl)amino)-8-fluoro-2-(((2R,7aS)-2-fluorotetrahydro-1H-pyrrolizin-7a(5H)-yl)methoxy)pyrido[4,3-d]pyrimidin-7-yl)naphthalen-2-bis(2,2,2-trifluoroacetate)] displayed an IC50 of 117 nM.

Turning to `CN(C)C(C)(C)CNc1nc(OC[C@]23CCCN2C[C@@H](F)C3)nc2c(F)c(-c3cc(O)cc4ccccc34)ncc12` [Example 42, 4-(4-((2-(dimethylamino)-2-methylpropyl)amino)-8-fluoro-2-(((2S,7aR)-2-fluorotetrahydro-1H-pyrrolizin-7a(5H)-yl)methoxy)pyrido[4,3-d]pyrimidin-7-yl)naphthalen-2-ol bis(2,2,2-trifluoroacetate)], the IC50 was found to be 211 nM.

Molecule `Cc1c(Cl)cc2[nH]ncc2c1-c1ncc2c(NCC3(N(C)C)CCC3)nc(OC[C@@]34CCCN3C[C@H](F)C4)nc2c1F` [Example 13, 7-(6-chloro-5-methyl-1H-indazol-4-yl)-N-((1-(dimethylamino)cyclobutyl)methyl)-8-fluoro-2-(((2R,7aS)-2-fluorotetrahydro-1H-pyrrolizin-7a(5H)-yl)methoxy)pyrido[4,3-d]pyrimidin-4-amine bis(2,2,2-trifluoroacetate)] registered a 50% inhibitory concentration (IC50) of 165 nM.

The molecule `CC(C)c1ccccc1-c1ncc2c(NCC3(N(C)C)CCC3)nc(OC[C@@]34CCCN3C[C@H](F)C4)nc2c1F` [Example 10, N-((1-(dimethylamino)cyclobutyl)methyl)-8-fluoro-2-(((2R,7aS)-2-fluorotetrahydro-1H-pyrrolizin-7a(5H)-yl)methoxy)-7-(2-isopropylphenyl)pyrido[4,3-d]pyrimidin-4-amine bis(2,2,2-trifluoroacetate)] returned an IC50 of 3720 nM.

`CN(C)C1(CNc2nc(OC[C@@]34CCCN3C[C@H](F)C4)nc3c(F)c(-c4cc(O)cc5ccccc45)ncc23)CCOCC1` [Example 41, 4-(4-(((4-(dimethylamino)tetrahydro-2H-pyran-4-yl)methyl)amino)-8-fluoro-2-(((2R,7aS)-2-fluorotetrahydro-1H-pyrrolizin-7a(5H)-yl)methoxy)pyrido[4,3-d]pyrimidin-7-yl)naphthalen-2-ol bis(2,2,2-trifluoroacetate)] showed an IC50 of 684 nM.

`CN1CCC[C@H]1COc1nc(NC2C3CNCC32)c2cnc(-c3cc(O)cc4ccccc34)c(F)c2n1` (stereo partly drawn) [Example 5, 4-(4-((3-azabicyclo[3.1.0]hexan-6-yl)amino)-8-fluoro-2-(((S)-1-methylpyrrolidin-2-yl)methoxy)pyrido[4,3-d]pyrimidin-7-yl)naphthalen-2-ol bis(2,2,2-trifluoroacetate)]: the IC50 stood at 2260 nM.
